Entries after “also recorded” stand apart in the source; their conditions may differ. Read-outs that look alike come from different tables or passages of the source.
Assays:
[1] = test system: SARS-CoV-2; assay: microbe, parasite or virus in culture; format: cell-based; conditions: for inhibition of SARS-CoV-2 by monoterpenes (in words): 72 h incubation
[2] = Cytotoxicity assay (MTS tetrazolium) on Vero 76 cells; conditions: African green monkey
[3] = in vitro; conditions: African green monkey
[4] = Severe acute respiratory syndrome coronavirus 2, Vero 76, 72 h, monoterpenes, infected Vero 76 cells, 0.02 MOI, 72 h, MTT, tested 1,000–4.91 μM, mean ± SD, read-out: EC50 SARS-Cov2
[5] = Severe acute respiratory syndrome coronavirus 2, Vero 76, 72 h, read-out: EC50 SARS-Cov2, monoterpenes, infected Vero 76 cells, 0.02 MOI, 72 h, MTT, tested 1,000–4.91 μM, mean ± SD
[6] = read-out: EC50 SARS-Cov2, monoterpenes, infected Vero 76 cells, 0.02 MOI, 72 h, MTT, tested 1,000–4.91 μM, mean ± SD
[7] = monoterpenes, infected Vero 76 cells, 0.02 MOI, 72 h, MTT, tested 1,000–4.91 μM, mean ± SD, read-out: EC50 SARS-Cov2

Structure (SMILES)	EC50 [1, 4] [µM]	inhibition of SARS-CoV-2 by monoterpenes (in words) ([1]; infected Vero 76 cells)	IC50 [2] [µM]	IC50 [3] [µM]	further results
CC1=CCC(O)(C(C)C)CC1 (centres unmarked) [Terpinen-4-ol]	> 1000	did not inhibit the SARS-CoV-2 at any significant rate; also recorded: Absence of activity	> 1000		
CC(C)=C1CC[C@@H](C)CC1=O [Pulegone]				> 1000	EC50 [1, 5]: > 100 µM; EC50 [1, 6]: 196 ± 17.1 µM
C=C(C)C1CC=C(C)CC1 (centres unmarked) [Limonene]			> 1000		EC50 ([1]; Severe acute respiratory syndrome coronavirus 2, Vero 76, 72 h, read-out: EC50 SARS-Cov2): > 1000 µM
Cc1coc2c1CCC(C)C2 (centres unmarked) [Menthofuran]				506 ± 76.4	EC50 [1, 5]: > 100 µM; EC50 [1, 6]: 154 ± 16.3 µM
CC1=CC[C@@H](C(C)(C)O)CC1 [α-Terpineol]	> 1000	did not inhibit the SARS-CoV-2 at any significant rate; also recorded: Absence of activity	> 1000		
CC(C)[C@@H]1CC[C@@H](C)CC1=O [Menthone]	> 1000	did not inhibit the SARS-CoV-2 at any significant rate; also recorded: Absence of activity	> 1000		
C=C(C)C1CC=C(C)C(=O)C1 (centres unmarked) [Carvone]	80.2 ± 6.07		> 1000		EC50 [1, 7]: 86.5 ± 12.7 µM
Cc1ccc(C(C)C)c(O)c1 [Thymol]		limited antiviral activity	509 ± 31.5		rate of SARS-Cov-2 inhibition ([1]; infected Vero 76 cells, 72 h, concentration not given): 58.54 ± 10.45%
C=CC(C)(O)CCC=C(C)C (centres unmarked) [Linalool]		did not inhibit the SARS-CoV-2 at any significant rate; also recorded: Absence of activity		> 1000	EC50 [1, 5]: > 1000 µM
Cc1ccc(C(C)C)cc1 [p-Cymene]	> 1000	did not inhibit the SARS-CoV-2 at any significant rate; also recorded: Absence of activity	> 1000		
CC1CCC(C(C)C)C(O)C1 (centres unmarked) [Menthol]	> 1000	did not inhibit the SARS-CoV-2 at any significant rate; also recorded: Absence of activity	> 1000		
CC12CCC(CC1)C(C)(C)O2 [1,8-Cineol]	> 100		> 1000		EC50 [1, 7]: 129 ± 15 µM
Cc1ccc(C(C)C)cc1O [Carvacrol]				455 ± 31.1	EC50 [1, 5]: 86.5 ± 12.7 µM; EC50 [1, 6]: 80.2 ± 6.07 µM; EC50 ([1]; read-out: EC50 SARS-Cov2, monoterpenes, infected Vero 76 cells, 0.02 MOI, 72 h, MTT, tested 1,000–4.91 μM, mean ± SD, listed as carvacrol): < 100 µM
CCN(CC)CCCC(C)Nc1ccnc2cc(Cl)ccc12 (centres unmarked) [Chloroquine, reference compound]	7.57 ± 1.18			> 1000	

From PMC9108200, “Antiviral Activity of Selected Lamiaceae Essential Oils and Their Monoterpenes Against SARS-Cov-2” (Frontiers in Pharmacology, 2022)
